Laboratory results as given in patent publication US20030144190A1, “Method of modulating and antiapoptotic and antiapoptotic pathways in cells” (priority 2003, published 2003).

Test system: CREF/RasV12
Assay: Apoptosis by flow cytometry (cells with hypodiploid DNA content) in Ras-transformed fibroblasts
Assay type: cell-based, rat

Structure (SMILES) | apoptosis observed in the presence of lovastatin alone (5 μM lovastatin, 24 h) [%] | lovastatin-induced apoptosis in the presence of translational inhibitors
CC[C@H](C)C(=O)O[C@H]1C[C@@H](C)C=C2C=C[C@H](C)[C@H](CC[C@@H]3C[C@@H](O)CC(=O)O3)[C@H]21 [lovastatin] | 2 to 8 | –
C[C@@H]1C[C@@H]([C@H](O)CC2CC(=O)NC(=O)C2)C(=O)[C@@H](C)C1 [cycloheximide] | – | blocked apoptosis
